Data: patent US20100137206A1, “NOVEL LIGAND GUIDED BLOCK COPOLYMERS FOR TARGETED DRUG DELIVERY” (priority 2006, published 2010)
Like-named read-outs stand apart in the source and are kept apart here.

System: B16-F10 cells
Assay: MTT cytotoxicity of DOX-containing micelles
Assay type: cell-based
Settings: for IC50: read-out: IC50 (μM) of DOX equivalent
Procedure: Briefly, 4000 cells were plated in 96-well plates and incubated for 24 h to allow the cells to attach. […] Living cells metabolize MTT to a dark formazan dye. The cell culture media was removed by aspiration and replaced with 200 μL DMSO. The absorbance was measured spectrophotometrically using a microplate reader at dual wavelengths of 570 nm and 650 nm. The data reported represent the means of triplicate measurement.

Compound	fold difference of IC50 in comparison to free DOX (24 h incubation)	IC50 (24 h incubation)	fold difference of IC50 in comparison to free DOX (48 h incubation)	IC50 (48 h incubation)
doxorubicin-conjugated acetal polyethylene oxide)-block-poly(caprolactone) [Acetal-PEO-b-PCL(DOX)]	14.3 fold	5.95 µM	6.3 fold	1.28 µM
COc1cccc2c1C(=O)c1c(O)c3c(c(O)c1C2=O)C[C@@](O)(C(=O)CO)C[C@@H]3O[C@H]1C[C@H](N)[C@H](O)[C@H](C)O1 [Free DOX, doxorubicin, reference compound]		0.417 µM		0.204 µM
